Data from patent publication US20260069531A1, “POLYMERIC LEUPROLIDE ACETATE FORMULATIONS” (Tolmar International Limited, priority 2023, published 2026).

What was measured:
[1] = LA gelation studies of drug solutions (60° C., inversion test, HPLC content); assay type: physicochemical; conditions: e-beam irradiated, 150 rpm, up to 16 days
Protocol: Drug solutions were prepared as described above and filled into syringes or glass vials. Syringes were untreated, contained various amounts of silicone, or were plasma coated for lubrication. Samples were irradiated by e-beam irradiation at not less than 25 kGy and stored at accelerated conditions of 60° C. with agitation at 150 rpm for up to 16 days. Samples were inspected periodically to determine if the drug solution remained a solution or had formed a solid/gel by an inversion test. Samples that had “gelled” were transferred to 5° C. for subsequent testing.
The gelation rate for each sample was calculated as Rate=1/(simulated 5° C. age at time of gelation in days). The Arrhenius equation was used to determine the simulated age, assuming standard reaction rate doubling for every 10° C. increase in temperature. […] Data was analyzed using JMP. […] Container type and lubrication were not significant.
Samples were tested for leuprolide content by HPLC. Leuprolide content was then converted to leuprolide acetate by multiplying by 1.078 (based on molecular mass ratios). A marked difference in leuprolide acetate content between the gelled and non-gelled samples was seen, with the tipping point between solution and solid/gelled samples occurring at about 45% LA.

[2] = assay type: physicochemical
Source text: To produce the drug/solvent bulk solution comprising the API (LA), the desired amount of the LA was combined with the solvent NMP or DMSO or combination of solvents with or without a co-solvent or other additives, in the indicated amounts (see individual experiments below). The API and solvent were combined in a glass vial or jar. Jars were mixed using the jar mill, Turbula, or shaker at room temperature until homogeneous. LA is soluble in NMP or DMSO and can load higher concentrations (at least 40% w/w). After dissolving the API in the organic solvent, the bulk solution was manually filled into syringes and capped with a tip cap. The syringes used for filling were either 1.2 mL male polypropylene syringes, 1.2 mL male cyclic olefin copolymer syringes or 1 mL male cyclic olefin copolymer syringes. Filled syringes were then packaged in labeled foil pouches with a Syringe A (polymer-solvent solution) and a desiccant pack and the pouches were sealed. After filling the syringes with the formulations, they were terminally sterilized with an external radiation dose of 30 kGy from e-beam processing. After terminal sterilization, the syringes were stored under refrigerated conditions (e.g., 2-8° C.) or accelerated conditions (>25° C. see individual experiments).

With `CCNC(=O)[C@@H]1CCCN1C(=O)[C@H](CCCNC(=N)N)NC(=O)[C@H](CC(C)C)NC(=O)[C@@H](CC(C)C)NC(=O)[C@H](Cc1ccc(O)cc1)NC(=O)[C@H](CO)NC(=O)[C@H](Cc1c[nH]c2ccccc12)NC(=O)[C@H](Cc1c[nH]cn1)NC(=O)[C@@H]1CCC(=O)N1` [Leuprolide Acetate, leuprolide acetate] the “tipping point between solution and solid/gelled samples (leuprolide acetate content)” value [1] was “about 45 % LA” and the “concentration of LA that can be loaded (soluble)” value [2] was “at least 40 % w/w”.
